Results on one molecule are retold here after patent publication US20140271734A1, “BILE ACID RECYCLING INHIBITORS FOR TREATMENT OF BARRETT'S ESOPHAGUS AND GASTROESOPHAGEAL REFLUX DISEASE” (LUMENA PHARMACEUTICALS, INC., priority 2013, published 2014).

One assay concerns fecal bile acid (FBA). The assay is described as follows: Fecal bile acids in hamsters, LUM001 for 28 days. The following applies: for Weight-Adjusted Fecal Total Bile Acids Excretion: n=10. In kind it is in vivo, golden Syrian hamsters. As to the method:
Male golden Syrian hamsters (126-147 gm) were obtained from Charles Rivers Laboratories and were single housed in a constant temperature environment with alternating 12-hour light and dark cycles. Hamsters were fed Teklad 7001 rodent meal chow at libitum for two weeks before the experimental studies began and switched to Teklad 7001 rodent meal chow supplemented with 0.24% cholesterol on day one of the 28-day experiment. LUM001 was dissolved in an aqueous solution of 0.2% (w/v) Tween 80 and administered Q.D. by intragastric gavage between 9 a.m. and 10 a.m. each morning using a syringe fitted with a flexible feeding tube. Blood samples were collected after 14- and 28-day treatment periods by orbital sinus and cardiac puncture, respectively. Hamsters were anesthetized but not fasted prior to blood collections. Fecal samples were collected during a 48-hour period at the end of days 14 and 28 (i.e., days 13-14 and 27-28, respectively).
Fecal samples were collected to determine the fecal bile acid (FBA) concentration for each animal. The separate collections from each hamster were weighed and homogenized with distilled water with a Polytron tissue processor (Brinkman Instruments) to generate a homogeneous slurry. Fecal homogenate (1.4 grams) was extracted with 2.6 mL of a solution containing tertiary butanol:distilled water in the ratio of 2:0.6 [final concentration of 50% (v/v) tertiary butanol] for 45 minutes in a 37° C. water bath and subjected to centrifugation for 13 minutes at 2000×g. The concentration of bile acids (mmolesgram homogenate) was determined using a 96-well enzymatic assay system (6, 7). Aliquots of the fecal extracts (20 μl) were added to two sets of triplicate wells in a 96-well assay plate. A standardized sodium taurocholate solution and a standardized fecal extract solution (previously made from pooled samples and characterized for its bile acid concentration) were also analyzed for assay quality control. Aliquots of 90 mM sodium taurocholate ([…]), were serially diluted to generate a standard curve containing 30-540 nmoles/well. A […] aliquot of reaction mixture containing 1M hydrazine hydrate, 0.1 M pyrophosphate and 0.46 mg/ml NAD was added to each well. Subsequently, a […] aliquot of either 3a-hydroxysteroid dehydrogenase enzyme (HSD; 0.8 units/ml) or assay buffer (0.1 M sodium pyrophosphate) was then added to one each of the two sets of triplicates. Following 60 minutes of incubation at room temperature, the optical density at 340 nm was measured and the mean of each set of triplicate samples was calculated. The difference in optical density±HSD enzyme was used to determine the bile acid concentration (mM) of each sample based on the sodium taurocholate standard curve. The bile acid concentration of the extract (mmolesgram homogenate), the total weight of the fecal homogenate (grams) and the body weight of the hamsters (g) were used to calculate the corresponding FBA concentration in mmoles/day/kg body weight for each animal. All reagents used for the assay were obtained from Sigma Chemical Co., St. Louis, Mo. (HSD—catalog # H-1506; NAD—catalog # N1636; sodium taurocholate—catalog # T-4009).

In a further assay the test system is serum bile acids. The assay is described as follows: Serum bile acids, ascending multiple oral doses of LUM001 in healthy adults. In kind it is in vivo, human. The following applies: 28 days. As to the method: This Phase 1 study was a randomized, double-blind, placebo-controlled study of ascending multiple oral doses of LUM001 in healthy, adult subjects. This study was conducted at a single center. There were 13 LUM001 dosing panels: 10, 20, 60, 100, and 20 mg every morning (qAM) (2) (i.e., the regimen was tested a second time in the study), 5 mg every evening (qPM), 0.5, 1, 2.5, 5, 2.5 (2), 5 (2), and 0.5 to 5 mg qAM dose titration. Most of the dosing panels included subjects treated with matching placebo. No subject participated in more than 1 dosing panel. Subjects were randomized into the study by dosing panel, and all subjects within a dosing panel received study medication at approximately the same time each day. Safety was reviewed for each panel before subsequent panels were initiated. A total of 167 subjects were treated for 28 days, 147 with LUM001 and 20 with placebo. […]
On Day 1 of the Treatment Period, subjects who qualified for enrollment were randomized in the order in which they were admitted to the research facility. […] The safety and tolerability of LUM001 were evaluated by physical examination, ascertainment of adverse signs and symptoms, and clinical laboratory studies. […]
SBA were analyzed as part of the routine clinical analysis of the serum samples collected at each time point.

`CCCCC1(CCCC)CS(=O)(=O)c2ccc(N(C)C)cc2[C@@H](c2ccc(OCc3ccc(C[N+]45CCN(CC4)CC5)cc3)cc2)[C@H]1O` [LUM001]: the figures for the “Weight-Adjusted Fecal Total Bile Acids Excretion, % change from vehicle group” value in the assay on fecal bile acid (FBA) (5 mg/kg/day), in the assay on fecal bile acid (FBA) (15 mg/kg/day) and with fecal bile acid (FBA) (50 mg/kg/day) were “(+233) %”, “(+267) %” and “(+422) %”, respectively. The “Weight-Adjusted Fecal Total Bile Acids Excretion” value was determined as 60 µmol/day/kg with fecal bile acid (FBA) (5 mg/kg/day), 66 µmol/day/kg with fecal bile acid (FBA) (15 mg/kg/day) and 94 µmol/day/kg in the assay on fecal bile acid (FBA) (50 mg/kg/day). In the assay on serum bile acids, the Serum bile acids result was “significant reduction in serum bile acids”.
